Reference: paper PMC6558518 (Angewandte Chemie (International ed. in English), 2018)

Tests used:
HeLa cells [1] = assay: MTT assay of cell viability / anti-proliferative activity; type: cell-based
HeLa cells [2] = assay: Mitochondrial membrane potential with JC-10 dye; details: 20 μM

Compound | inhibitor concentration at which maximum inhibition was reached (HeLa cells [1]; HeLa cells) | maximum inhibition in HeLa cell viability (HeLa cells [1]; at saturating concentrations) | increase of F520/F590 ratio above the normal value (HeLa cells [2])
COC1=C2C[C@@H](C)C[C@H](OC)[C@H](O)[C@@H](C)/C=C(\C)[C@H](OC(N)=O)[C@@H](OC)/C=C\C=C(/C)C(=O)NC(=CC1=O)C2=O [GA, Geldanamycin] | 0.3 µM | ~ 40% | –
p-trifluoromethoxy carbonyl cyanide phenyl hydrazone [FCCP] | – | – | up to 7 fold
